# Assays:
# [1] = system: busulfan antibodies (antisera of example 7); assay: Indirect competitive microtiter plate immunoassay (ELISA), busulfan derivative 7-BSA sensitized plates; type: binding, mouse; settings: antibodies to Busulfan-KLH (example 7); plate coating Busulfan-BSA conjugate example 5, derivative 7; ratio of IC50 busulfan to IC50 analyte
# Procedure: (§1) Ten Female BALB/c mice were immunized i.p. with 100 μg/mouse of Busulfan-BTG immunogen prepared in example 3 or with Busulfan-KLH immunogen prepared in example 4, emulsified in Complete Freund's Adjuvant. Mice were boosted once four weeks after the initial injection with 100 μg/mouse of the same immunogens emulsified in Incomplete Freund's Adjuvant. Ten or 28 days after the boost test bleeds from each mouse were obtained by orbital bleed. The anti-serum from these test bleeds contained Busulfan antibodies evaluated in Examples 9 , 10a and 10b.
# The ELISA method for measuring busulfan concentrations was performed in polystyrene microtiter plates (Nunc MaxiSorp C8 or F8 Immunomodules) optimized for protein binding and containing 96 wells per plate. Each well was coated with busulfan-BSA conjugate (prepared as in example 5) by adding 300 μL of busulfan-BSA conjugate at 10 μg/mL in 0.05M sodium bicarbonate, pH=9.6, and incubating for three hours at room temperature. The wells were washed with 0.05M sodium bicarbonate, pH 9.6 and then were blocked with 400 μL of 5% sucrose, 0.2% sodium caseinate solution for 30 minutes at room temperature. After removal of the post-coat solution the plates were dried at 37° C. overnight.
# (§2) The ELISA method for screening busulfan antibodies (produced in example 7) was performed with the microtiter plates that were sensitized with busulfan-BSA as described in examples 8a and 8b. The antibody screening assay was performed by diluting the antisera containing busulfan antibodies (of example 7) to 1:100, 1:1,000, 1:10,000 and 1:100,000 in phosphate buffered saline containing 0.1% BSA and 0.01% thimerosal. To each well of busulfan-BSA sensitized wells (prepared in examples 8a and 8b) 100 μL of diluted antibody was added and incubated for 10 minutes at room temperature with shaking. During this incubation antibody binds to the busulfan-conjugate in the well. The wells of the plates were washed three times with 0.02 M TRIS, 0.9% NaCl, 0.5% Tween-80 and 0.001% Thimerosal, pH 7.8 to remove any unbound antibody. […] Following the incubation for color development, 50 μL of stop solution (1.5% sodium fluoride in di H2O) was added to each well to stop the color development and after 10 seconds of shaking the absorbance was determined at 650 nm (Molecular Devices Plate Reader). The amount of antibody in a well was proportional to the absorbance measured and was expressed as the dilution (titer) resulting in an absorbance of 1.5. Titers were determined by graphing Log antibody dilution of the antibody measured (x-axis) vs. absorbance 650 nm (y-axis) and extrapolating the titer at an absorbance of 1.5. The titer determined the concentration (dilution) of antibody used in the indirect competitive Microtiter plate assay described in examples 10a and 10b. […]
# [2] = system: busulfan antibodies (antisera of example 7); assay: Indirect competitive microtiter plate immunoassay (ELISA), busulfan derivative 11-BSA sensitized plates; type: binding, mouse; settings: antibodies to Busulfan-KLH (example 7); plate coating Busulfan-BSA conjugate example 6, derivative 11; ratio of IC50 busulfan to IC50 analyte
# Procedure: as §1
# The ELISA method for measuring busulfan concentrations was performed in polystyrene microtiter plates (Nunc MaxiSorp C8 or F8 Immunomodules) optimized for protein binding and containing 96 wells per plate. Each well was coated with busulfan-BSA conjugate (prepared as in example 6) by adding 300 μL of busulfan-BSA conjugate at 2.5 μg/mL in 7.5 μg/mL BSA, 0.05M sodium bicarbonate, pH=9.6, and incubating for three hours at room temperature. The wells were washed with 0.05M sodium bicarbonate, pH 9.6 and then were blocked with 400 μL of 5% sucrose, 0.2% sodium caseinate solution for 30 minutes at room temperature. After removal of the post-coat solution the plates were dried at 37° C. overnight.
# as §2, with “well.” for “well. The wells of the plates were washed three times with 0.02 M TRIS, 0.9% NaCl, 0.5% Tween-80 and 0.001% Thimerosal, pH 7.8 to remove any unbound antibody.”
Compound,Cross-Reactivity of Competitive Immunoassay [1] [%],Cross-Reactivity of Competitive Immunoassay [2] [%]
CS(=O)(=O)OCCCCOS(C)(=O)=O [Busulfan],100,100
"C1CCSC1 [Tetrahydrothiophene, tetrahydrothiophene]",<0.4,<0.24
"O=S1(=O)CCC(O)C1 (centres unmarked) [Tetrahydrothiophene-3-ol-1,1-dioxide, tetrahydrothiophene-3-ol-1,1-dioxide]",<0.4,<0.24
"O=S1(=O)CCCC1 [Tetramethylene sulfone, tetramethylene sulfone]",<0.4,<0.24
